According to the supplement of paper PMC10307832:

compound: COc1nc(N)nc2c1ncn2[C@@H]1O[C@H](CO)[C@@H](O)[C@@H]1O [Nelarabine] + O=C(CCCCCCC(=O)Nc1ccccc1)NO [Vorinostat] (partner 1 µM); test: relative viability (nuclei count vs DMSO), 5 days (fraction); higher = more cells survive; settings: first compound 0.01 µM
Procedure, shortened: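 One day after seeding in 1536-well plates, lung cancer cell lines were dosed by pin tool. Dosing was either single-drug or a fixed anchor-drug dose plus five library-drug doses (not always all listed) in √10 steps. After 5 days, nuclei were stained in one fix-and-stain step and counted on 4× images, and relative viability is the nuclei count of treated wells over that of vehicle wells, given as the median of duplicate plates.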

Row | Cell Line | relative viability
1 | NCI-H838 | 0.861
2 | NCI-H1355 | 0.665
3 | NCI-H1437 | 0.992
4 | NCI-H1650 | 0.61
5 | NCI-H1651 | 0.487
6 | NCI-H1666 | 1.03
7 | NCI-H1734 | 0.839
8 | NCI-H1755 | 0.954
9 | NCI-H1915 | 0.599
10 | NCI-H1975 | 0.87
11 | NCI-H1993 | 0.742
12 | NCI-H2009 | 0.789
13 | NCI-H2023 | 0.793
14 | NCI-H2085 | 0.788
15 | NCI-H2087 | 0.674
16 | NCI-H2126 | 0.945
17 | NCI-H2228 | 0.634
18 | NCI-H2347 | 0.584
19 | NCI-H2405 | 1.2
20 | NCI-H3122 | 1.38
21 | PC-3 [JPC-3] | 0.927
22 | PC-14 | 0.832
23 | RERF-LC-KJ | 0.749
24 | SK-LU-1 | 0.789

same assay, conditions: first compound 0.03162 µM

Row | Cell Line | relative viability
25 | LXF-289 | 0.698
26 | NCI-H23 | 0.604
27 | NCI-H322M | 0.856
28 | NCI-H441 | 0.814
29 | NCI-H460 | 1.5
30 | NCI-H520 | 0.757
31 | NCI-H596 | 0.608
32 | NCI-H647 | 0.798
33 | NCI-H650 | 0.376
34 | NCI-H661 | 0.951
35 | NCI-H838 | 0.79
36 | NCI-H1355 | 0.673
37 | NCI-H1437 | 0.946
38 | NCI-H1650 | 0.53
39 | NCI-H1651 | 0.591
40 | NCI-H1666 | 1.03
41 | NCI-H1734 | 0.704

Row | Cell Line | relative viability
42 | NCI-H1755 | 0.742
43 | NCI-H1915 | 0.544
44 | NCI-H1975 | 0.7
45 | NCI-H1993 | 0.728
46 | NCI-H2009 | 0.676
47 | NCI-H2023 | 0.821
48 | NCI-H2085 | 0.814
49 | NCI-H2087 | 0.551
50 | NCI-H2126 | 0.803
51 | NCI-H2228 | 0.569
52 | NCI-H2347 | 0.69
53 | NCI-H2405 | 0.988
54 | NCI-H3122 | 0.833
55 | PC-3 [JPC-3] | 0.924
56 | PC-14 | 0.736
57 | RERF-LC-KJ | 0.754
58 | SK-LU-1 | 0.585

same assay, conditions: first compound 0.1 µM

Row | Cell Line | relative viability
59 | LXF-289 | 0.674
60 | NCI-H23 | 0.548
61 | NCI-H322M | 0.954
62 | NCI-H441 | 1.02
63 | NCI-H460 | 0.889
64 | NCI-H520 | 0.676
65 | NCI-H596 | 0.613
66 | NCI-H647 | 0.716
67 | NCI-H650 | 0.4
68 | NCI-H661 | 0.702
69 | NCI-H838 | 0.759
70 | NCI-H1355 | 0.544
71 | NCI-H1437 | 0.831
72 | NCI-H1650 | 0.524
73 | NCI-H1651 | 0.525
74 | NCI-H1666 | 1.18
75 | NCI-H1734 | 0.772
76 | NCI-H1755 | 0.682
77 | NCI-H1915 | 0.488
78 | NCI-H1975 | 0.778
79 | NCI-H1993 | 0.736
